In US20240109873A1, “ANTAGONISTS OF THE MUSCARINIC ACETYLCHOLINE RECEPTOR M4” (Vanderbilt University, priority 2020, published 2024):

Biological target: T1, human mAChR M4 (Homo sapiens, UniProt P08173)
T1 construct: expressed in transfected cells; host or cells: CHO-K1 (ATCC), co-transfected with chimeric G protein Gqi5
T1 sequence (P08173 1-479): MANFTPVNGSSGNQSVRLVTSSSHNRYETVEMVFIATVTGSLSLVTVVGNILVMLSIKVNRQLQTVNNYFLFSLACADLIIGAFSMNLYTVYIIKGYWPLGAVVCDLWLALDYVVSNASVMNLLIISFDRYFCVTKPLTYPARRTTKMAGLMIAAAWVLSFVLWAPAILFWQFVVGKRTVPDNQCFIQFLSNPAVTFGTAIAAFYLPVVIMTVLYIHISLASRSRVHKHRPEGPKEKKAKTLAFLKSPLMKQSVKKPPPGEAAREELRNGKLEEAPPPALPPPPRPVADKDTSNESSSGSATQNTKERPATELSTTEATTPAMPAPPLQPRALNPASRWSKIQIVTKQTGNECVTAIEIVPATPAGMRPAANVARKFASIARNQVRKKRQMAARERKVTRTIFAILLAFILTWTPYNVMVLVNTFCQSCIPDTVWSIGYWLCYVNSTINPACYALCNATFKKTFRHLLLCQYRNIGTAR
Experiment: mAChR M4 cell-based functional assay (calcium flux, antagonism of EC80 acetylcholine response, M4/Gqi5/CHO-K1 cells)
Conditions: for remaining activity at 30 µM: CHO-K1, % ACh maximum at 30 μM, read-out: Human M4 Emin; for IC50: decrease of the response elicited by an EC80 concentration of acetylcholine, CHO-K1 cells, Gqi5
Method in brief: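 CHO-K1 cells stably expressing human M4 with chimeric Gqi5, loaded with Fluo-4 AM; calcium flux read on FDSS. Compounds (10-point, 1:3 curves) added first, then EC20 acetylcholine at 143 s and EC80 at 268 s. IC50 from decrease of EC80 acetylcholine response, four-parameter logistic fit.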

SMILES | remaining activity at 30 µM [%] | IC50 [nM]
[2H]C([2H])(C1CCOCC1)N1C[C@H]2C[C@H](Nc3nnc(-c4cnccc4C(F)(F)F)c4sccc34)C[C@H]2C1 [Compound 34, N-((3aR,5s,6aS)-2-((tetrahydro-2H-pyran-4-yl)methyl-d2)octahydrocyclopenta[c]pyrrol-5-yl)-7-(4-(trifluoromethyl)pyridin-3-yl)thieno[2,3-d]pyridazin-4-amine] | 3 | 0.7
[2H]C([2H])(C1CCOCC1)N1C[C@H]2C[C@H](Nc3nnc(-c4cnccc4C(F)(F)F)c4ccsc34)C[C@H]2C1 [Compound 35, N-((3aR,5s,6aS)-2-((tetrahydro-2H-pyran-4-yl)methyl-d2)octahydrocyclopenta[c]pyrrol-5-yl)-4-(4-(trifluoromethyl)pyridin-3-yl)thieno[2,3-d]pyridazin-7-amine] | 4 | 0.52
[2H]C([2H])(N1C[C@H]2C[C@H](Nc3ccc(-c4cnccc4C(F)(F)F)nn3)C[C@H]2C1)C(F)(F)C1CCOCC1 [Compound 36, (3aR,5s,6aS)-2-(2,2-difluoro-2-(tetrahydro-2H-pyran-4-yl)ethyl-1,1-d2)-N-(6-(4-(trifluoromethyl)pyridin-3-yl)pyridazin-3-yl)octahydrocyclopenta[c]pyrrol-5-amine] | 6 | 39
[2H]C([2H])(N1C[C@H]2C[C@H](Nc3nnc(-c4cnccc4C(F)(F)F)cc3C)C[C@H]2C1)C(F)(F)C1CCOCC1 [Compound 37, (3aR,5s,6aS)-2-(2,2-difluoro-2-(tetrahydro-2H-pyran-4-yl)ethyl-1,1-d2)-N-(4-methyl-6-(4-(trifluoromethyl)pyridin-3-yl)pyridazin-3-yl)octahydrocyclopenta[c]pyrrol-5-amine] | 4 | 21
[2H]C([2H])(C1CCOCC1)N1C[C@H]2C[C@H](Nc3ccc(-c4cccnc4C(F)F)nn3)C[C@H]2C1 [Compound 38, (3aR,5s,6aS)-N-(6-(2-(difluoromethyl)pyridin-3-yl)pyridazin-3-yl)-2-((tetrahydro-2H-pyran-4-yl)methyl-d2)octahydrocyclopenta[c]pyrrol-5-amine] | 5 | 0.48
[2H]C([2H])(C1CCOCC1)N1C[C@H]2C[C@H](Nc3ccc(-c4cccnc4C(F)(F)F)nn3)C[C@H]2C1 [Compound 39, (3aR,5s,6aS)-2-((tetrahydro-2H-pyran-4-yl)methyl-d2)-N-(6-(2-(trifluoromethyl)pyridin-3-yl)pyridazin-3-yl)octahydrocyclopenta[c]pyrrol-5-amine] | 23 | 0.8
FC(F)(F)c1ncccc1-c1ccc(N[C@H]2C[C@@H]3CN(CC4CCOCC4)C[C@@H]3C2)nn1 [Compound 40, (3aR,5s,6aS)-2-((tetrahydro-2H-pyran-4-yl)methyl)-N-(6-(2-(trifluoromethyl)pyridin-3-yl)pyridazin-3-yl)octahydrocyclopenta[c]pyrrol-5-amine] | 3 | 0.74
[2H]C([2H])(C1CCOCC1)N1C[C@H]2C[C@H](Nc3ccc(-c4cccnc4C(F)(F)F)nc3)C[C@H]2C1 [Compound 41, (3aR,5s,6aS)-2-((tetrahydro-2H-pyran-4-yl)methyl-d2)-N-(2′-(trifluoromethyl)-[2,3′-bipyridin]-5-yl)octahydrocyclopenta[c]pyrrol-5-amine] | 2 | 8.7
[2H]C([2H])(CC1CCOCC1)N1C[C@H]2C[C@H](Nc3ccc(-c4cccnc4C(F)(F)F)nn3)C[C@H]2C1 [Compound 42, (3aR,5s,6aS)-2-(2-(tetrahydro-2H-pyran-4-yl)ethyl-1,1-d2)-N-(6-(2-(trifluoromethyl)pyridin-3-yl)pyridazin-3-yl)octahydrocyclopenta[c]pyrrol-5-amine] | 2 | 1.3
[2H]C([2H])(C1CCOC(C)(C)C1)N1C[C@H]2C[C@H](Nc3ccc(-c4cccnc4C(F)(F)F)nn3)C[C@H]2C1 (stereo partly drawn) [Compound 43, (3aR,5s,6aS)-2-((2,2-dimethyltetrahydro-2H-pyran-4-yl)methyl-d2)-N-(6-(2-(trifluoromethyl)pyridin-3-yl)pyridazin-3-yl)octahydrocyclopenta[c]pyrrol-5-amine] | 2 | 2.6
[2H]C1([2H])CC(C([2H])([2H])N2C[C@H]3C[C@H](Nc4ccc(-c5cccnc5C(F)(F)F)nn4)C[C@H]3C2)CC([2H])([2H])O1 [Compound 44, (3aR,5s,6aS)-2-((tetrahydro-2H-pyran-4-yl-2,2,6,6-d4)methyl-d2)-N-(6-(2-(trifluoromethyl)pyridin-3-yl)pyridazin-3-yl)octahydrocyclopenta[c]pyrrol-5-amine] | 2 | 1.4
[2H]C([2H])(C1CC(C)(C)OC(C)(C)C1)N1C[C@H]2C[C@H](Nc3ccc(-c4cccnc4C(F)(F)F)nn3)C[C@H]2C1 [Compound 45, (3aR,5s,6aS)-2-((2,2,6,6-tetramethyltetrahydro-2H-pyran-4-yl)methyl-d2)-N-(6-(2-(trifluoromethyl)pyridin-3-yl)pyridazin-3-yl)octahydrocyclopenta[c]pyrrol-5-amine] | 2 | 14.7
[2H]C([2H])([C@H]1CCCOC1)N1C[C@H]2C[C@H](Nc3ccc(-c4cccnc4C(F)(F)F)nn3)C[C@H]2C1 [Compound 46, (3aR,5s,6aS)-2-(((R)-tetrahydro-2H-pyran-3-yl)methyl-d2)-N-(6-(2-(trifluoromethyl)pyridin-3-yl)pyridazin-3-yl)octahydrocyclopenta[c]pyrrol-5-amine] | 2 | 21.7
[2H]C([2H])([C@@H]1CCCOC1)N1C[C@H]2C[C@H](Nc3ccc(-c4cccnc4C(F)(F)F)nn3)C[C@H]2C1 [Compound 47, (3aR,5s,6aS)-2-(((S)-tetrahydro-2H-pyran-3-yl)methyl-d2)-N-(6-(2-(trifluoromethyl)pyridin-3-yl)pyridazin-3-yl)octahydrocyclopenta[c]pyrrol-5-amine] | 2 | 4
[2H]C([2H])([C@@H]1CCCCO1)N1C[C@H]2C[C@H](Nc3ccc(-c4cccnc4C(F)(F)F)nn3)C[C@H]2C1 [Compound 48, (3aR,5s,6aS)-2-(((S)-tetrahydro-2H-pyran-2-yl)methyl-d2)-N-(6-(2-(trifluoromethyl)pyridin-3-yl)pyridazin-3-yl)octahydrocyclopenta[c]pyrrol-5-amine] | 2 | 0.87
[2H]C([2H])([C@H]1CCCCO1)N1C[C@H]2C[C@H](Nc3ccc(-c4cccnc4C(F)(F)F)nn3)C[C@H]2C1 [Compound 49, (3aR,5s,6aS)-2-(((R)-tetrahydro-2H-pyran-2-yl)methyl-d2)-N-(6-(2-(trifluoromethyl)pyridin-3-yl)pyridazin-3-yl)octahydrocyclopenta[c]pyrrol-5-amine] | 2 | 0.55
[2H]C([2H])(C1CCOCC1)N1C[C@H]2C[C@H](Nc3nnc(-c4cccnc4C(F)(F)F)cc3C)C[C@H]2C1 [Compound 50, (3aR,5s,6aS)-N-(4-methyl-6-(2-(trifluoromethyl)pyridin-3-yl)pyridazin-3-yl)-2-((tetrahydro-2H-pyran-4-yl)methyl-d2)octahydrocyclopenta[c]pyrrol-5-amine] | 1 | 0.88
[2H]C([2H])([C@H]1COCCO1)N1C[C@H]2C[C@H](Nc3ccc(-c4cccnc4C(F)(F)F)nn3)C[C@H]2C1 [Compound 51, (3aR,5s,6aS)-2-(((S)-1,4-dioxan-2-yl)methyl-d2)-N-(6-(2-(trifluoromethyl)pyridin-3-yl)pyridazin-3-yl)octahydrocyclopenta[c]pyrrol-5-amine] | 2 | 1.4
[2H]C([2H])(C1CCCOCC1)N1C[C@H]2C[C@H](Nc3ccc(-c4cccnc4C(F)(F)F)nn3)C[C@H]2C1 (stereo partly drawn) [Compound 52, (3aR,5s,6aS)-2-(oxepan-4-ylmethyl-d2)-N-(6-(2-(trifluoromethyl)pyridin-3-yl)pyridazin-3-yl)octahydrocyclopenta[c]pyrrol-5-amine] | 2 | 0.58
[2H]C([2H])(C1CCOCC1(C)C)N1C[C@H]2C[C@H](Nc3ccc(-c4cccnc4C(F)(F)F)nn3)C[C@H]2C1 (stereo partly drawn) [Compound 53, (3aR,5s,6aS)-2-((3,3-dimethyltetrahydro-2H-pyran-4-yl)methyl-d2)-N-(6-(2-(trifluoromethyl)pyridin-3-yl)pyridazin-3-yl)octahydrocyclopenta[c]pyrrol-5-amine] | 3 | 2.9
